These results are taken from patent US8962630B2, “Pyrrolopyrimidine compounds and their uses” (Novartis AG, priority 2008, dated 2015).

Type in all cases: biochemical
One assay has as its target CDK4/cyclin D1 (Homo sapiens (Human), UniProt P11802). In words: CDK4/Cyclin D1 enzymatic activity assay (Lance TR-FRET). Particulars: Table 2; 3 μM ATP; read-out: CDK4. The protocol:
A 384-well microtiter Lance TR-FRET (time-resolved-fluorescence energy transfer) endpoint assay was used for CDK4/cyclin D1 kinase activity measurements. The same assay was used for IC50 determination of small molecule inhibitors. In general, the kinase reactions were carried out in 30 μL volumes in the reaction solution containing the following: 2 uL compound (in […]), 18 uL CDK4/cyclin D1 in Assay Buffer (50 mM HEPES, pH 7.5, 5 mM MgCl2, 2 mM MnCl2, 1 mM DTT, 0.05% BSA, 0.02% Tween-20), 10 uL of the mixture of pRb152 and ATP. The final reaction mixture contains compound (inhibitor) with the concentration varying from 0.005-10 μM, 2% DMSO, 0.3 nM CDK4/cyclin D1, 175 nM pRb152, and 3 μM ATP (Amersham Pharmacia, Cat. No. 27-2056-01). All reactions were run at room temperature in 384-well white flat-bottom OptiPlates (Perkin Elmer, Cat. No. 6007290) for 60 min then were quenched by the addition of 10 μL of 120 mM EDTA. The signals were captured by the addition of 40 μL of the Detection Solution containing the following: Detection Buffer (50 mM HEPES, pH 7.5, 30 mM EDTA, 0.1% Triton x-100, 0.05% BSA), 70 ng/mL anti-phospho-pRb(S780) (Cell Signaling Technology, Cat. No. 9307S), 1 nM Lance Eu-W1024-Rabbit anti-IgG (Perkin Elmer, Cat. No. AD0082), and 20 nM SureLight™ Allophycocyanin-Streptavidin (Perkin Elmer, Cat. No. CR130-100). The resulted solutions were incubated at room temperature for 2 hours before read on the Evision Multilabel Reader (Perkin Elmer, Envision 2102-0010).
CDk4/cyclin D1 recombinant protein used in the enzymatic activity assay was prepared by coexpressing pDEST10-CDK4 (N-terminal His6) and pFastBacDual-GST-hCyclinDl viruses in Sf21 cells.

Another assay has as its target CDK2/cyclin A (Homo sapiens (Human), UniProt P24941). In words: CDK2/Cyclin A enzymatic activity assay (IMAP-FP). Particulars: Table 2; read-out: CDK2.
Another assay concerns the target CDK1/cyclin B (Homo sapiens (Human), UniProt P06493). In words: CDK1/Cyclin B enzymatic activity assay (IMAP-FP). Particulars: Table 2; 20 μM ATP; read-out: CDK1. The text has this: A 384-well microtiter IMAP-FPT™ (Molecular Devices Trade Mark Technology) endpoint assay was used for CDK1/cyclin B kinase activity measurements. The same assay was used for IC50 determination of small molecule inhibitors.

pIC50: −log10 of the molar value.

Chain of CDK4/cyclin D1 (P11802 whole entry): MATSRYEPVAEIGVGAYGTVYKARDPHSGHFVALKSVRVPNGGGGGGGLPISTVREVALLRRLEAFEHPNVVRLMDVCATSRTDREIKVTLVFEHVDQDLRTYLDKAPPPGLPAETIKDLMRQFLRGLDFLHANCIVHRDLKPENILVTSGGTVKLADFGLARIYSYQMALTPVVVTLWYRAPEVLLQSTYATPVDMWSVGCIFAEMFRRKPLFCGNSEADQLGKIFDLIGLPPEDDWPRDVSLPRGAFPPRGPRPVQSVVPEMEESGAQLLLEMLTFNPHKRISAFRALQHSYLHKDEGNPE
Chain of CDK4/cyclin D1 (P24385 whole entry partner): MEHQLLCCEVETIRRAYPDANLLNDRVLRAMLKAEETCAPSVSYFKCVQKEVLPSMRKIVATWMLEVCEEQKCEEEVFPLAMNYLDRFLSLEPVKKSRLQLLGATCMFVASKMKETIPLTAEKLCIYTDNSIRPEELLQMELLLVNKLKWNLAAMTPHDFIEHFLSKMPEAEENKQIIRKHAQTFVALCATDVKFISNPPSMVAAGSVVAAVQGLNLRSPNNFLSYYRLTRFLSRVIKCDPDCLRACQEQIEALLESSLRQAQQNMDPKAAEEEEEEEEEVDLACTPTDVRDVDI
Chain of CDK1/cyclin B (P06493 whole entry, species assumed): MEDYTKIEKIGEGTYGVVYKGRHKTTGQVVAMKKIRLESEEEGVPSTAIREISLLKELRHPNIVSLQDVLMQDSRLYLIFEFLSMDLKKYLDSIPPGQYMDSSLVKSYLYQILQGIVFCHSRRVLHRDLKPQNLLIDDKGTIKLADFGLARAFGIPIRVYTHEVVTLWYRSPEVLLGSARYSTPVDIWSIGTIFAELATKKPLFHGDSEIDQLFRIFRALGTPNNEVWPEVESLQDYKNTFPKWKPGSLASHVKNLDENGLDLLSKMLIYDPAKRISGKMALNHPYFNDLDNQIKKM
Chain of CDK1/cyclin B (P14635 whole entry partner, species assumed): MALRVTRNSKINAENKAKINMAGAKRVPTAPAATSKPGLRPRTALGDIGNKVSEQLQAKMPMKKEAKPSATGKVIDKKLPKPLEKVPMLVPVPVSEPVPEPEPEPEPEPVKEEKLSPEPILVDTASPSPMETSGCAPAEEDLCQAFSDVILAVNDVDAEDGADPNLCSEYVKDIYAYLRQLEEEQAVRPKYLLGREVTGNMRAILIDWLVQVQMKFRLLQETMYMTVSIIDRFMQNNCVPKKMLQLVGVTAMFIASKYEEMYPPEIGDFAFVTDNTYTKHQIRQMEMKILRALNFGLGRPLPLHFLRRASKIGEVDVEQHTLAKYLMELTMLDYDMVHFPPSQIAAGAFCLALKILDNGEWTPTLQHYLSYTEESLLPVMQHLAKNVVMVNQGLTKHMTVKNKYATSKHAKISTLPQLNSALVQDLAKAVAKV

Take `CN(C)C(=O)c1cc2cnc(Nc3ccc(N4CCN(C(=O)C5CC5)CC4)cn3)nc2n1C1CCCC1` [Example 27, 7-Cyclopentyl-2-[5-(4-cyclopropanecarbonyl-piperazin-1-yl)-pyridin-2-ylamino]-7H-pyrrolo[2,3-d]pyrimidine-6-carboxylic acid dimethylamide]: the figures for the pIC50 at CDK4/cyclin D1, on CDK2/cyclin A and at CDK1/cyclin B were 7.00 to 8.00, less than 4.82 and less than 4.82, respectively.
For the compound `CCN1CCN(c2ccc(Nc3ncc4cc(C(=O)N(C)C)n(C5CCCC5)c4n3)nc2)CC1` [Example 78, 7-Cyclopentyl-2-[5-(4-ethyl-piperazin-1-yl)-pyridin-2-ylamino]-7H-pyrrolo[2,3d]pyrimidine-6-carboxylic acid dimethylamide], the results for the pIC50 at CDK4/cyclin D1, on CDK2/cyclin A and at CDK1/cyclin B were 8.00 to 9.00, less than 4.82 and less than 4.82, respectively.
`CN(C)C(=O)c1cc2cnc(Nc3ccc(N4CCN(C(=O)CCC5CCCC5)CC4)cn3)nc2n1C1CCCC1` [Example 91, 7-Cyclopentyl-2-{5-[4-(3-cyclopentyl-propionyl)-piperazin-1-yl]-pyridin-2-ylamino}-7H-pyrrolo[2,3-d]pyrimidine-6-carboxylic acid dimethylamide]: the pIC50 on CDK4/cyclin D1 is 7.00 to 8.00; on CDK2/cyclin A it was less than 4.82; on CDK1/cyclin B, less than 4.82.
For the compound `C[C@H](O)CN1CCN(c2ccc(Nc3ncc4cc(C(=O)N(C)C)n(C5CCCC5)c4n3)nc2)CC1` [Example 56, 7-Cyclopentyl-2-{5-[4-((S)-2-hydroxy-propyl)-piperazin-1-yl]-pyridin-2-ylamino}-7H-pyrrolo[2,3-d]pyrimidine-6-carboxylic acid dimethylamide], the pIC50 is 7.00 to 8.00 on CDK4/cyclin D1, less than 4.82 at CDK2/cyclin A and less than 4.82 at CDK1/cyclin B.
With `CN(C)C(=O)c1cc2cnc(Nc3ccc(N4CCN(C(=O)OC(C)(C)C)CC4)nn3)nc2n1C1CCCC1` [Example 45, 4-[6-(7-Cyclopentyl-6-dimethylcarbamoyl-7H-pyrrolo[2,3-d]pyrimidin-2-ylamino)-pyridazin-3-yl]-piperazine-1-carboxylic acid tert-butyl ester], the pIC50 on CDK4/cyclin D1 is 6.00 to 7.00; at CDK2/cyclin A, 4.70; at CDK1/cyclin B, less than 4.82.
`C[C@@H](O)CN1CCN(c2ccc(Nc3ncc4cc(C(=O)N(C)C)n(C5CCCC5)c4n3)nc2)CC1` [Example 57, 7-Cyclopentyl-2-{5-[4-((R)-2-hydroxy-propyl)-piperazin-1-yl]-pyridin-2-ylamino}-7H-pyrrolo[2,3-d]pyrimidine-6-carboxylic acid dimethylamide]: the pIC50 at CDK4/cyclin D1 was 7.00 to 8.00; on CDK2/cyclin A, less than 4.82; on CDK1/cyclin B it was less than 4.82.
Regarding `CN(C)C(=O)c1cc2cnc(Nc3ccc(C(=O)N4CCNCC4)cn3)nc2n1C1CCCC1` [Example 49, 7-Cyclopentyl-2-[5-(piperazine-1-carbonyl)-pyridin-2-ylamino]-7H-pyrrolo[2,3-d]pyrimidine-6-carboxylic acid dimethylamide], the pIC50 was 7.00 to 8.00 at CDK4/cyclin D1, less than 4.82 on CDK2/cyclin A and less than 4.82 at CDK1/cyclin B.
As for `CC(C(=O)O)N1CCN(c2ccc(Nc3ncc4cc(C(=O)N(C)C)n(C5CCCC5)c4n3)nc2)CC1` (stereo not drawn) [Example 103, 2-{4-[6-(7-Cyclopentyl-6-dimethylcarbamoyl-7H-pyrrolo[2,3-d]pyrimidin-2-ylamino)-pyridin-3-yl]-piperazin-1-yl}-propionic acid], the pIC50 on CDK4/cyclin D1 was 7.00 to 8.00; at CDK2/cyclin A, less than 4.82; at CDK1/cyclin B, less than 4.82.
`CN(C)C(=O)c1cc2cnc(Nc3ccc(C(=O)N4CCC(N(C)C)CC4)cn3)nc2n1C1CCCC1` [Example 50, 7-Cyclopentyl-2-[5-(4-dimethylamino-piperidine-1-carbonyl)-pyridin-2-ylamino]-7H-pyrrolo[2,3-d]pyrimidine-6-carboxylic acid dimethylamide]: the pIC50 on CDK4/cyclin D1 was 7.00 to 8.00; at CDK2/cyclin A, less than 4.82; on CDK1/cyclin B it was less than 4.82.
Consider `CN1CCN(Cc2ccc(Nc3ncc4cc(C(=O)N(C)C)n(C5CCCC5)c4n3)nc2)CC1` [Example 43, 7-Cyclopentyl-2-[5-(4-methyl-piperazin-1-ylmethyl)-pyridin-2-ylamino]-7H-pyrrolo[2,3-d]pyrimidine-6-carboxylic acid dimethylamide], for which the pIC50 at CDK4/cyclin D1 was 7.00 to 8.00; on CDK2/cyclin A, less than 4.82; at CDK1/cyclin B it was less than 4.82.
In the case of `CN(C)C(=O)c1cc2cnc(Nc3ccc(N4CCN(C5CCCC5)CC4)cn3)nc2n1C1CCCC1` [Example 79, 7-Cyclopentyl-2-[5-(4-cyclopentyl-piperazin-1-yl)-pyridin-2-ylamino]-7H-pyrrolo[2,3-d]pyrimidine-6-carboxylic acid dimethylamide], the pIC50 is 7.00 to 8.00 on CDK4/cyclin D1, less than 4.82 on CDK2/cyclin A and less than 4.82 on CDK1/cyclin B.
On to `CN(C)C(=O)c1cc2cnc(Nc3ccc(CN4CCN(CCO)CC4)cn3)nc2n1C1CCCC1` [Example 85, 7-Cyclopentyl-2-{5-[4-(2-hydroxy-ethyl)-piperazin-1-ylmethyl]-pyridin-2-ylamino}-7H-pyrrolo[2,3-d]pyrimidine-6-carboxylic acid dimethylamide], for which the pIC50 on CDK4/cyclin D1 is 7.00 to 8.00; on CDK2/cyclin A, less than 4.82; on CDK1/cyclin B it was less than 4.82.
With `CN(C)C(=O)c1cc2cnc(Nc3ccc(N4CCC(CCO)CC4)cn3)nc2n1C1CCCC1` [Example 35, 7-Cyclopentyl-2-[4-(2-hydroxy-ethyl)-3,4,5,6-tetrahydro-2H-[1,3′]bipyridinyl-6′-ylamino]-7H-pyrrolo[2,3-d]pyrimidine-6-carboxylic acid dimethylamide], the pIC50 is 7.00 to 8.00 at CDK4/cyclin D1, 5.54 on CDK2/cyclin A and 5.33 on CDK1/cyclin B.
Regarding `C[C@H](CO)NCc1ccc(Nc2ncc3cc(C(=O)N(C)C)n(C4CCCC4)c3n2)nc1` [Example 66, 7-Cyclopentyl-2-{5-[((R)-2-hydroxy-1-methyl-ethylamino)-methyl]-pyridin-2 lamino}-7H-pyrrolo[2,3-d]pyrimidine-6-carboxylic acid dimethylamide], the pIC50 at CDK4/cyclin D1 was 7.00 to 8.00; at CDK2/cyclin A it was less than 4.82; on CDK1/cyclin B, less than 4.82.
Take `CC(C)N1CCC(c2ccc(Nc3ncc4cc(C(=O)N(C)C)n(C5CCCC5)c4n3)nc2)CC1` [Example 80, 7-Cyclopentyl-2-(1′-isopropyl-1′,2′,3′,4′,5′,6′-hexahydro-[3,4′]bipyridinyl-6-ylamino)-7H-pyrrolo[2,3-d]pyrimidine-6-carboxylic acid dimethylamide]: the results for the pIC50 at CDK4/cyclin D1, on CDK2/cyclin A and at CDK1/cyclin B were 7.00 to 8.00, less than 4.82 and less than 4.82, respectively.
Turning to `CN(C)C(=O)c1cc2cnc(Nc3ccc(C(=O)N4CCC(O)CC4)cn3)nc2n1C1CCCC1` [Example 87, 7-Cyclopentyl-2-[5-(4-hydroxy-piperidine-1-carbonyl)-pyridin-2-ylamino]-7H-pyrrolo[2,3-d]pyrimidine-6-carboxylic acid dimethylamide], the figures for the pIC50 on CDK4/cyclin D1, at CDK2/cyclin A and on CDK1/cyclin B were 7.00 to 8.00, less than 4.82 and 4.89, respectively.
As for `CN(C)C(=O)c1cc2cnc(Nc3ccc(CN4CCN(C(=O)CN)CC4)cn3)nc2n1C1CCCC1` [Example 65, 2-{5-[4-(2-Amino-acetyl)-piperazin-1-ylmethyl]-pyridin-2-ylamino}-7-cyclopentyl-7H-pyrrolo[2,3-d]pyrimidine-6-carboxylic acid dimethylamide], the values for the pIC50 at CDK4/cyclin D1, at CDK2/cyclin A and at CDK1/cyclin B were 7.00 to 8.00, less than 4.82 and less than 4.82, respectively.
